Where two headings read alike, the source gives them in different places.
How the values were obtained:
LD50 value, oral, mice = settings: mouse, in vivo, p.o., ten mice per group
Source text: LD50 value Ten mice were used for each group. LD50 value was estimated with the dose (mg/kg, p.o.) which induced death in 50% of mice.

Acetylcholinesterase = biological target: T1, Acetylcholinesterase (Rattus norvegicus, UniProt P37136); assay: Acetylcholinesterase inhibiting activity using (acetyl-[3H])-acetylcholine, S1 fraction of rat cerebral cortex homogenate; type: biochemical, male Wistar rat
T1 construct: the S1 fraction of a male Wistar rat cerebral cortex homogenate was used as a cholinesterase source; from tissue; host or cells: male Wistar rat cerebral cortex homogenate, S1 fraction
Procedure: The compounds according to the invention were examined for cholinesterase inhibiting activity using (acetyl-[^3 H])-acetylcholine. Thus, the S1 fraction of a male Wistar rat cerebral cortex homogenate was used as a cholinesterase source, and (acetyl-[^3 H])-acetylcholine (as substrate) and each test compound according to the invention were added and, after 30 minutes of incubation, the reaction was terminated. A toluene type scintillator was added, and the mixture was shaken, whereby the reaction product [^3 H]-acetic acid was transferred to the toluene layer. The cholinesterase activity was determined by counting said [^3 H]-acetic acid with a liquid scintillation counter.
The cholinesterase inhibiting activity of each test compound was expressed in terms of 50% inhibitory concentration (IC50).

mice = assay: General symptoms in mice (salivation, lachrymation, hypothermia); type: in vivo; design: key: +++: marked; ++: moderate; +: mild; non-detected; settings: 100 mg/kg orally; observed for 4 hours
Procedure: Four mice were used for each group. Mice were placed in stainless steel cages (13×18×25 cm) and after a 1-hr habituation period the compounds were administered. […] Peripheral and central effects of the compounds were estimated with the incidences of salivation and lachrymation, and a grade of hypothermia, respectively.
The compounds which were soluble in saline were dissolved in saline and the others were suspended in 5% arabic gum solution. Each compound was administered orally (100 mg/kg).
Scorings of the symptoms were made as follows.

[1] = test system: CO2-induced ammesia in mice; assay: Nootropic action: effect on CO2-induced amnesia in mice (passive avoidance response); type: in vivo, mice (male ICR); settings: i.p., 30 min before the test, saline = 100, ** p < 0.01
Procedure: Effect of the compounds (I) and (II) on impairment of passive avoidance response, induced by exposing mice to 100% CO2 gas, was evaluated. Male ICR mice (Japan Clea) aged 5 weeks were used. The experimental apparatus consisted of two compartments, and one illuminated chamber (9×9×25 cm) was connected to dark chamber (25×25×30 cm) with a guillotine door. Each mouse was placed in the illuminated compartment and then allowed to enter the dark one. When the mouse entered the dark chamber, the door was closed and AC 0.5 mA footshock was applied to the floor grid of the dark chamber. The mouse can memorize the experience receiving the uncomfortable stimulus for a few weeks. Next, the consolidation processes of memory were disturbed by an experimental manipulation: Each mouse was placed under the hypoxic condition by being placed into a 4l desiccator filled with 100% CO2 gas, immediately after receiving the footshock in the dark chamber. When his respiratory function was stopped, the mouse was taken out from the desiccator and given artificial respiration till recovering spontaneous respiration. This procedure disturbed the consolidation of the memory (experience of footshock). On the next day, a retention test was performed whether the mouse memorizes the footshock or not. In the test, the mouse was again placed in the illuminated compartment and the latency to enter the dark compartment was measured.
The mice subjected to hypoxia entered the dark compartment with short latency, 10-20 sec. […] The ameliorating effect of compounds on the amnesia induced by hypoxia was evaluated by the latency time, and was expressed as the percent change of the mean time of the vehicle-treated control group (Table 5.). The compounds were suspended in 5% arabic gum solution, and administered intraperitoneally (i.p.) 30 min. before the test.

T1 sequence (P37136 32-614): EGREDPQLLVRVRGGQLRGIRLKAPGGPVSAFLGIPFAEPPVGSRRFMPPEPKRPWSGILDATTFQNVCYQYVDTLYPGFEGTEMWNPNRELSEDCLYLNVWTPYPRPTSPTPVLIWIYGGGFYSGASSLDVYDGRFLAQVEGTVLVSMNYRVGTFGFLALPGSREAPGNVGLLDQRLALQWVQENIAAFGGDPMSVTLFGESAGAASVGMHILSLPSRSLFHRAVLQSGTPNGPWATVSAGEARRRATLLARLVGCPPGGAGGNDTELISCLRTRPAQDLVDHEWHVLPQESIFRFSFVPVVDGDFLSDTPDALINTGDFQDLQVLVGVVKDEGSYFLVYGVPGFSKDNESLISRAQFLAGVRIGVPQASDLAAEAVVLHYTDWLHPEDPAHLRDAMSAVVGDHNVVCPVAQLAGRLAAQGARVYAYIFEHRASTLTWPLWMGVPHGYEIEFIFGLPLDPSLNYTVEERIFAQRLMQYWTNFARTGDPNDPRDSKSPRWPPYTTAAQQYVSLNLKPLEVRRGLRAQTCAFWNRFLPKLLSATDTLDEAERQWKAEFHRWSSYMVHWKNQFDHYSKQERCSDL

Row | SMILES | LD50 (LD50 value, oral, mice) [mg/kg] | IC50 (Acetylcholinesterase; rat cerebral cortex homogenate S1 fraction, 30 minutes of incubation, read-out: Acetylcholinesterase inhibiting activity IC50) [nM] | Hypothermia (mice) | Lachrymation (mice) | Salivation (mice) | Anti-amnesia (latency, percent change of the mean time of the vehicle-treated control group) ([1]; 3 mg/kg) [%] | IC50 (Acetylcholinesterase) [nM] | Anti-amnesia (latency, percent change of the mean time of the vehicle-treated control group) ([1]; 1 mg/kg) [%] | Anti-amnesia (latency, percent change of the mean time of the vehicle-treated control group) ([1]; 0.3 mg/kg) [%]
1 | CCN(CCCCCN1C(=O)c2ccc([N+](=O)[O-])cc2C1=O)Cc1ccccc1 [Compound 2-8] | 300 | 150 | + | ++ | + | 326 |  |  | 
2 | CCN(CCCCCN1C(=O)c2ccc(NC(C)=O)cc2C1=O)Cc1ccccc1 [Compound 11-1] | > 300 |  | + | ++ | - |  | 320 | 455 | 
3 | CNC(=O)Oc1ccc2c(c1)[C@]1(C)CCN(C)[C@@H]1N2C [Physostigmine, physostigmine, reference compound] | 2.6 |  |  |  |  |  |  |  | 210

Source: US5025033A, “Alkylene diamines” (Takeda Chemical Industries, Ltd., priority 1988, dated 1991)
